Source: patent US11883387B2, “PqsR inverse agonists” (HELMHOLTZ-ZENTRUM FÜR INFEKTIONSFORSCHUNG GMBH, priority 2018, dated 2024)

How the values were obtained:
PqsR = PqsR (Pseudomonas aeruginosa, UniProt Q9I4X0); assay: E. coli based β-galactosidase reporter gene assay (PqsR inverse agonistic activity); assay type: cell-based; design: expressed in transfected cells; host or cells: Escherichia coli DH5α
Description: Inhibition of pqsR-dependent gene expression of test compounds was determined in an E. coli based β-galactosidase reporter gene assay.[19] Escherichia coli DH5α was transfected with pEAL08-2 plasmid encoding pqsR under control of promoter tac and β-galactosidase reporter gene lacZ under control of promoter pqsA. Antagonistic effects of compounds were evaluated in the presence of/in competition to 50 nM PQS. A positive control was used to ensure the reliability of individual assays. First, PQS was diluted in methanol and added to the wells of a glass coated 96-deep-well plate, and the solvent was evaporated. Then, compounds were added in 5 μL DMSO to final concentrations of 0.001-10 μM. Overnight cultures of E. coli DH5a×pEAL08-2 were diluted 1:100 in LB medium with ampicillin (50 μg/ml) and incubated at 37° C. with shaking until it reached an OD600 of 0.2. Finally, 995 μL of culture was added to each well and the p-galactosidase activity was determined by ortho-nitrophenyl-p-galactoside conversion in permeabilized cells after a 2.5 h incubation period (37° C., 180 rpm). OD600, OD420, and OD550 were measured using POLARstar Omega (BMG Labtech, Ortenberg, Germany), and the activity was expressed as ratio of the slope of β-galactosidase activity between basal control (no PQS) and solvent control. IC50 values of antagonists were determined by variation of the concentration of the test compounds.

[1] = system: P. aeruginosa pyocyanin production; assay: Pyocyanin assay; assay type: cell-based, P. aeruginosa PA14; conditions: Pseudomonas aeruginosa, PA14, 16 h, read-out: IC50-value towards pyocyanin production, PA14 in PPGAS medium, 16 h
Description: Inhibition of P. aeruginosa pyocyanin production by compounds was determined photometrically as described before.[20] In short, an overnight culture of PA14 in PPGAS medium was washed, diluted in medium to a start OD600 of 0.02, and incubated for 16 h (37° C., 200 rpm, relative humidity 75%) in the presence of test compounds. Then, cultures were extracted with chloroform and re-extracted with 0.2 M HCl. Protonated red colored pyocyanin was determined by measuring OD520 and normalizing to OD600.

Sequence of PqsR (Q9I4X0 whole entry): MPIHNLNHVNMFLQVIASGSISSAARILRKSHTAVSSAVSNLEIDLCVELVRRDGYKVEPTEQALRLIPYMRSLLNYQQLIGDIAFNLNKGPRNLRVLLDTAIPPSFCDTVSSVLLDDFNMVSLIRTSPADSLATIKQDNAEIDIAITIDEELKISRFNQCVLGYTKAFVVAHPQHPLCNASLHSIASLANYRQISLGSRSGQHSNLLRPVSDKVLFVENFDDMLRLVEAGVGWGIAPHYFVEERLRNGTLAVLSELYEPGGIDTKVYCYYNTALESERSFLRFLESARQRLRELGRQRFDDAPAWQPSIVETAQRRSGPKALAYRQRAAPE

| Structure (SMILES) | IC50 (PqsR) [nM] | IC50 [1] [nM] |
| --- | --- | --- |
| Nc1cc(SCc2cn(-c3ccc(Oc4ccccc4)cc3)nn2)nc(C(F)(F)F)n1 [Compound 065, 6-(((1-(4-phenoxyphenyl)-1H-1,2,3-triazol-4-yl)methyl)thio)-2-(trifluoromethyl)pyrimidin-4-amine] | ≤ 50 | ≤ 250 |
| FC(F)(F)c1cc(NCc2cn(-c3ccc(Cc4ccncc4)cc3)nn2)ccn1 [Compound 025, N-((1-(4-(Pyridin-4-ylmethyl)phenyl)-1H-1,2,3-triazol-4-yl)methyl)-2-(trifluoromethyl)pyridin-4-amine] | ≤ 50 | 251 to 1000 |
| FC(F)(F)c1nccc(SCc2cn(-c3ccc(Oc4ccccc4)cc3)nn2)n1 [Compound 061, 4-(((1-(4-phenoxyphenyl)-1H-1,2,3-triazol-4-yl)methyl)thio)-2-(trifluoromethyl)pyrimidine] | ≤ 50 | 251 to 1000 |
| CC(C)Oc1ccc(-c2ncc(CNc3cc(Cl)nc(Cl)c3)s2)cc1 [Compound 162, 2,6-Dichloro-N-((2-(4-isopropoxyphenyl)thiazol-5-yl)methyl)pyridin-4-amine] | ≤ 50 | ≤ 250 |
| FC(F)(F)c1cc(NCc2cn(-c3ccc(Nc4ccccc4)cc3)nn2)ccn1 [Compound 018, N-((1-(4-(Phenylamino)phenyl)-1H-1,2,3-triazol-4-yl)methyl)-2-(trifluoromethyl)pyridin-4-amine] | ≤ 50 | 251 to 1000 |
| COc1ccc(-n2cc(CNc3ccnc(C(F)(F)F)c3)nn2)cc1F [Compound 026, N-((1-(3-Fluoro-4-methoxyphenyl)-1H-1,2,3-triazol-4-yl)methyl)-2-(trifluoromethyl)pyridin-4amine] | ≤ 50 | 1000 to 5000 |
| FC(F)(F)c1cc(NCc2cn(-c3ccc(-n4ncc5ccncc54)cc3)nn2)ccn1 [Compound 148, N-((1-(4-(1H-pyrazolo[3,4-c]pyridin-1-yl)phenyl)-1H-1,2,3-triazol-4-yl)methyl)-2-(trifluoromethyl)pyridin-4-amine] | ≤ 50 | 251 to 1000 |
| CC(C)Oc1ccc(-n2cc(CNc3cc(C#N)nc(C#N)c3)nn2)cc1Cl [Compound 159, 4-(((1-(3-chloro-4-isopropoxyphenyl)-1H-1,2,3-triazol-4-yl)methyl)amino)pyridine-2,6-dicarbonitrile] | ≤ 50 | ≤ 250 |
| Fc1cccc(Oc2ccc3[nH]c(CSc4ccnc(C(F)(F)F)c4)nc3c2)c1 [Compound 170, 5-(3-fluorophenoxy)-2-(((2-(trifluoromethyl)pyridin-4-yl)thio)methyl)-1H-benzo[d]imidazole] |  | ≤ 250 |
| FC(F)(F)c1cc(NCc2cn(-c3ccc(Oc4cccnc4)cc3)nn2)cc(Cl)n1 [Compound 141, 2-chloro-N-((1-(4-(pyridin-3-yloxy)phenyl)-1H-1,2,3-triazol-4-yl)methyl)-6-(trifluoromethyl)pyridin-4-amine] | ≤ 50 | ≤ 250 |
| CSc1ccc(-n2cc(CNc3ccnc(C(F)(F)F)c3)nn2)cc1 [Compound 016, N-((1-(4-(methylthio)phenyl)-1H-1,2,3-triazol-4-yl)methyl)-2-(trifluoromethyl)pyridin-4-amine] | ≤ 50 | 1000 to 5000 |
| CC(C)Oc1ccc(-n2cc(CNc3cc(Cl)nc(C(F)(F)F)c3)nn2)cc1 [Compound 140, 2-chloro-N-((1-(4-isopropoxyphenyl)-1H-1,2,3-triazol-4-yl)methyl)-6-(trifluoromethyl)pyridin-4-amine] |  | ≤ 250 |
| CC(C)Oc1ccc(-c2ncc(CNc3cc(C#N)nc(C(F)(F)F)c3)s2)cc1 [Compound 163, 4-(((2-(4-Isopropoxyphenyl)thiazol-5-yl)methyl)amino)-6-(trifluoromethyl)picolinonitrile] |  | ≤ 250 |
| CC(C)Oc1ccc(-c2ncc(CNc3cc(Cl)nc(C(F)(F)F)c3)s2)cc1Cl [Compound 094, 2-Chloro-N-((2-(3-chloro-4-isopropoxyphenyl)thiazol-5-yl)methyl)-6-(trifluoromethyl)pyridin-4-amine] | ≤ 50 | ≤ 250 |
| N#Cc1cc(NCc2cn(-c3ccc(Oc4ccccc4)cc3)nn2)cc(C#N)n1 [Compound 052, 4-(((1-(4-Phenoxyphenyl)-1H-1,2,3-triazol-4-yl)methyl)amino)pyridine-2,6-dicarbonitrile] | ≤ 50 | ≤ 250 |
| FC(F)(F)c1cncc(NCc2cn(-c3ccc(Oc4ccccc4)cc3)nn2)c1 [Compound 021, N-((1-(4-phenoxyphenyl)-1H-1,2,3-triazol-4-yl)methyl)-5-(trifluoromethyl)pyridin-3-amine] | ≤ 50 | 1000 to 5000 |

| Structure (SMILES) | IC50 (PqsR) [nM] | IC50 [1] [nM] |
| --- | --- | --- |
| Nc1cc(SCc2nc3cc(Oc4cccc(F)c4)ccc3[nH]2)nc(C(F)(F)F)n1 [Compound 171, 6-(((5-(3-fluorophenoxy)-1H-benzo[d]imidazol-2-yl)methyl)thio)-2-(trifluoromethyl)pyrimidin-4-amine] |  | ≤ 250 |
| Fc1ccccc1Oc1ccc(-n2cc(CNc3cc(Cl)nc(C(F)(F)F)c3)nn2)cc1 [Compound 143, 2-chloro-N-((1-(4-(2-fluorophenoxy)phenyl)-1H-1,2,3-triazol-4-yl)methyl)-6-(trifluoromethyl)pyridin-4-amine] | ≤ 50 | ≤ 250 |
| Clc1cc(SCc2nc3cc(Oc4ccccc4)ccc3[nH]2)ccn1 [Compound 178, 2-(((2-chloropyridin-4-yl)thio)methyl)-5-phenoxy-1H-benzo[d]imidazole] | 51 to 250 | 251 to 1000 |
| CC(C)Oc1ccc(-c2ncc(CNc3cc(Cl)nc(C(F)(F)F)c3)cn2)cc1 [Compound 168, 2-chloro-N-((2-(4-isopropoxyphenyl)pyrimidin-5-yl)methyl)-6-(trifluoromethyl)pyridin-4-amine] |  | ≤ 250 |
| Fc1ccccc1Oc1ccc(-c2ncc(CNc3cc(Cl)nc(C(F)(F)F)c3)cn2)cc1 [Compound 167, 2-chloro-N-((2-(4-(2-fluorophenoxy)phenyl)pyrimidin-5-yl)methyl)-6-(trifluoromethyl)pyridin-4-amine] |  | ≤ 250 |
| Fc1cccc2c1cnn2-c1ccc(-n2cc(CNc3cc(Cl)nc(C(F)(F)F)c3)nn2)cc1 [Compound 146, 2-chloro-N-((1-(4-(4-fluoro-1H-indazol-1-yl)phenyl)-1H-1,2,3-triazol-4-yl)methyl)-6-(trifluoromethyl)pyridin-4-amine] |  | 251 to 1000 |
| O=[N+]([O-])c1cc(-c2ncc(CNc3cc(Cl)nc(C(F)(F)F)c3)cn2)ccc1Cl [Compound 169, 2-chloro-N-((2-(4-chloro-3-nitrophenyl)pyrimidin-5-yl)methyl)-6-(trifluoromethyl)pyridin-4-amine] |  | ≤ 250 |
| FC(F)(F)c1cc(NCc2cn(-c3ccc(CN4CCOCC4)cc3)nn2)ccn1 [Compound 019, N-((1-(4-(Morpholinomethyl)phenyl)-1H-1,2,3-triazol-4-yl)methyl)-2-(trifluoromethyl)pyridin-4-amine] | 251 to 1000 |  |
| O=C(c1cccc(-c2nc(CNc3ccnc(C(F)(F)F)c3)cs2)c1)C1CC1 [Compound 090, Cyclopropyl(3-(4-(((2-(trifluoromethyl)pyridin-4-yl)amino)methyl)thiazol-2-yl)phenyl)methanone] | 251 to 1000 |  |
| Fc1cc(-n2cc(CSc3ccnc(C(F)(F)F)c3)nn2)ccc1OC(F)(F)F [Compound 064, 4-(((1-(3-fluoro-4-(trifluoromethoxy)phenyl)-1H-1,2,3-triazol-4-yl)methyl)thio)-2-(trifluoromethyl)pyridine] | 51 to 250 |  |
| FC(F)(F)c1cc(NCc2cn(-c3ccc(-n4ncc5ccccc54)cc3)nn2)cc(Cl)n1 [Compound 150, N-((1-(4-(1H-indazol-1-yl)phenyl)-1H-1,2,3-triazol-4-yl)methyl)-2-chloro-6-(trifluoromethyl)pyridin-4-amine] |  | 251 to 1000 |
| FC(F)(F)c1cc(NCc2cn(-c3ccc(-n4ncc5ccncc54)cc3)nn2)cc(Cl)n1 [Compound 151, N-((1-(4-(1H-pyrazolo[3,4-c]pyridin-1-yl)phenyl)-1H-1,2,3-triazol-4-yl)methyl)-2-chloro-6-(trifluoromethyl)pyridin-4-amine] |  | 251 to 1000 |
| COc1c(C)cc(-c2ncc(CNc3ccnc(C(F)(F)F)c3)s2)cc1C [Compound 075, N-((2-(4-Methoxy-3,5-dimethylphenyl)thiazol-5-yl)methyl)-2-(trifluoromethyl)pyridin-4-amine] | 251 to 1000 |  |
| Fc1ccc(-n2cc(CNc3ccnc(C(F)(F)F)c3)nn2)cc1Cl [Compound 027, N-((1-(3-Chloro-4-fluorophenyl)-1H-1,2,3-triazol-4-yl)methyl)-2-(trifluoromethyl)pyridin-4-amine] | 251 to 1000 |  |
| COc1cc(SCc2nc3cc(Oc4ccccc4)ccc3[nH]2)nc(C(F)(F)F)n1 [Compound 126, 2-(((6-Methoxy-2-(trifluoromethyl)pyrimidin-4-yl)thio)methyl)-5-phenoxy-1H-benzo[d]imidazole] | 251 to 1000 |  |
